Laboratory results from patent publication US5759827A, “Acylated oligopeptides for transfecting cells” (Hoffmann-La Roche Inc., priority 1995, dated 1998).
Square brackets hold non-standard residues; d marks the D form. Peptide text beside a SMILES is read from it. * marks the point of attachment. Palmitoyl = CCCCCCCCCCCCCCCC(=O)*; dDab = NCC[C@@H](N)C(=O)O; Orn = NCCC[C@H](N)C(=O)O; dDap = NC[C@@H](N)C(=O)O; Dab = NCC[C@H](N)C(=O)O; Dap = NC[C@H](N)C(=O)O; NHNH2 = NN*

How the values were obtained:
Type in all cases: cell-based
COS-1 cells = experiment: Transfection efficiency in COS-1 cells with a beta-galactosidase encoding plasmid; details: for Beta-galactosidase activity 1 μg DNA/well / Beta-galactosidase activity 0.2 μg DNA/well: formulated as in example 1 (DOPE liposomes added to compound/DNA), 48 h after transfection
Method: Dioleoyl phosphatidylethanolamine (DOPE, Avanti Polar Lipids Inc.) liposomes were prepared by drying under vacuum the lipid in solution in chloroform and then rehydrating the lipid film with 30 mM Tris Cl pH 8.5. Final lipid concentration was 2 mM. The lipid dispersion was subsequently sonicated for 10-15 min in a sonicator bath (Elgasonic, 50 kHz).
(§1) Twenty μg of plasmid DNA were diluted with 260 μl of distilled, sterile water in a polystyrene sterile tube. […] 140 μl of DOPE liposomes were then slowly added, drop by drop, to obtain a molar ratio between DOPE and Nγ-palmitoyl-D-(α,γ-diaminobutyryl)-L-(α,γ-diaminobutyric acid) hydrazide of 5:1. The complex was carefully mixed. The preparation was allowed to stand at room temperature during about 5 min and was then added to COS-1 cells grown in 96-well plates.
as §1, with “Mixed micelles of DOPE (2 μmoles) and dicaproyl phosphatidylcholine (15 μmotes) were prepared by drying the lipids under vacuum and then rehydrating the lipid film with 1 ml of 30 mM TrisCl buffer pH 8.5. Twenty” for “Twenty”, “pCH110” for “DNA”, “distilled” for “distilled, sterile”, “DOPE/dicyproyl PC mixed micelles” for “DOPE liposomes”, “added” for “added, drop by drop,”
The mixture was added to 20 μg of plasmid DNA in 260 μl of distilled water, so that the +/- charge ratio between Nγ-palmitoyl-D-(α,γ-diaminobutyryl)-L-(α,γ-diaminobutyric acid) hydrazide and plasmid DNA was 2:1. The complex was carefully mixed. The preparation was allowed to stand at room temperature during about 5 min and was then added to COS-1 cells grown in 96-well plates.

CHO K1 = experiment: Transfection efficiency with a luciferase encoding vector, CHO K1 cell-line
Method: (§2) A transfecting complex with Nγ-palmitoyl-D-(α,γ-diaminobutyryl)-L-(α,γ-diaminobutyric acid) hydrazide (compound A) was prepared as described in example 1. Lipofectamine™ complex was prepared following manufacturer's instructions. The transfection efficiency of both systems was compared in various cell-lines using a luciferase encoding vector.
(§3) Cells were transfected with a luciferase encoding plasmid and luciferase activity was measured 48 h after transfection. Results are expressed as relative light units.

293-EBNA = experiment: Transfection efficiency with a luciferase encoding vector, 293-EBNA cell-line
Method: as §2, §3

LM tk- = experiment: Transfection efficiency with a luciferase encoding vector, LM tk- cell-line
Method: as §2, §3

HeLa = experiment: Transfection efficiency with a luciferase encoding vector, HeLa cell-line
Method: as §2, §3

| Compound | Beta-galactosidase activity 1 μg DNA/well (COS-1 cells) | Beta-galactosidase activity 0.2 μg DNA/well (COS-1 cells) | also measured |
| --- | --- | --- | --- |
| CCCCCCCCCCCCCCCC(=O)N[C@@H](CCN)C(=O)NN [N^α palmitoyl-L (α,γ-diaminobutyric acid) hydrazide] | 1411 μunits of beta-galactosidase p | – | – |
| CCCCCCCCCCCCCCCC(=O)N[C@@H](CCN)C(=O)N[C@@H](CCN)C(=O)NN [N^α palmitoyl-L (α,γ-diaminobutyryl)-L (α,γ-diaminobutyric acid) hydrazide] (Palmitoyl-[Dab]-[Dab]-NHNH2) | 3519 μunits of beta-galactosidase p | 2742 μunits of beta-galactosidase p | – |
| CCCCCCCCCCCCCCCC(=O)N[C@@H](CCCNC(=N)N)C(=O)N[C@@H](CCCNC(=N)N)C(=O)OCC [N^α palmitoyl-L arginyl-L arginine ethyl ester] (Palmitoyl-Arg-Arg-OEt) | 382 μunits of beta-galactosidase p | 0 μunits of beta-galactosidase p | – |
| CCCCCCCCCCCCCCCC(=O)N[C@@H](CCCNC(=N)N)C(=O)N[C@@H](CCCN)C(=O)OC [N^α palmitoyl-L arginyl-L ornithine methyl ester] (Palmitoyl-Arg-[Orn]-OMe) | 870 μunits of beta-galactosidase p | 0 μunits of beta-galactosidase p | – |
| CCCCCCCCCCCCCCCC(=O)N[C@@H](CCCCN)C(=O)N[C@@H](CCCCN)C(=O)NCc1ccccc1 [N^α palmitoyl-L lysyl-L lysine benzylamide] | 845 μunits of beta-galactosidase p | 510 μunits of beta-galactosidase p | – |
| CCCCCCCCCCCCCCCC(=O)N[C@@H](CCCCN)C(=O)N[C@@H](CCCCN)C(=O)O [N^α palmitoyl-L lysyl-L lysine] | 530 μunits of beta-galactosidase p | 0 μunits of beta-galactosidase p | – |
| CCCCCCCCCCCCCCCC(=O)N[C@@H](CCCCN)C(=O)N[C@@H](CCCCN)C(=O)N[C@@H](CCCCN)C(=O)NN [N^α palmitoyl-L lysyl-L lysyl-L lysine hydrazide] | 2232 μunits of beta-galactosidase p | 136 μunits of beta-galactosidase p | – |
| CCCCCCCCCCCCCCCC(=O)N[C@@H](CCCCN)C(=O)N[C@@H](CO)C(=O)OC [N^α palmitoyl-L lysyl-L serine methyl ester] | 219 μunits of beta-galactosidase p | 0 μunits of beta-galactosidase p | – |
| CCCCCCCCCCCCCCCC(=O)N[C@@H](CCCN)C(=O)N[C@@H](CCCN)C(=O)OC [N^α palmitoyl-L ornithyl-L ornithine methyl ester] | 789 μunits of beta-galactosidase p | 44 μunits of beta-galactosidase p | – |
| CCCCCCCCCCCCCCCC(=O)NCC[C@@H](N)C(=O)N[C@H](CCN)C(=O)N[C@@H](CCN)C(=O)NN [N^γ palmitoyl-D (α,γ-diaminobutyryl)-D (α,γ-diaminobutyryl)-L (α,γ-diaminobutyric acid) hydrazide] (H-[dDab](Palmitoyl)-[dDab]-[Dab]-NHNH2) | 7768 μunits of beta-galactosidase p | 1847 μunits of beta-galactosidase p | – |
| CCCCCCCCCCCCCCCC(=O)NC[C@@H](N)C(=O)N[C@@H](CN)C(=O)OCC [N^γ palmitoyl-D (α,ε-diaminopropionyl)-L (α,ε-diaminopropionic acid) ethyl ester] (H-[dDap](Palmitoyl)-[Dap]-OEt) | 0 μunits of beta-galactosidase p | 359 μunits of beta-galactosidase p | – |
| CCCCCCCCCCCCCCCC(=O)NCC[C@H](N)C(=O)N[C@H](CCN)C(=O)N[C@H](CCN)C(=O)N[C@@H](CCN)C(=O)NN [N^γ palmitoyl-L (α,γ-diaminobutyryl)-D (α,γ-diaminobutyryl)-D (α,γ-diaminobutyryl)-L (α,γ-diaminobutyric acid) hyrazide] (H-[Dab](Palmitoyl)[dDab][dDab][Dab]-NHNH2) | 542 μunits of beta-galactosidase p | 497 μunits of beta-galactosidase p | – |
| CCCCCCCCCCCCCCCC(=O)NCC[C@H](N)C(=O)N[C@@H](CCN)C(=O)N[C@@H](CCN)C(=O)N[C@@H](CCN)C(=O)NN [N^γ palmitoyl-L (α,γ-diaminobutyryl)-L (α,γ-diaminobutyryl)-L (α,γ-diaminobutyryl)-L (α,γ-diaminobutyric acid) hydrazide] (H-[Dab](Palmitoyl)[Dab][Dab][Dab]-NHNH2) | 7835 μunits of beta-galactosidase p | 1800 μunits of beta-galactosidase p | – |
| CCCCCCCCCCCCCCCC(=O)NCC[C@@H](N)C(=O)N[C@@H](CCN)C(=O)NN [cpd A, Nγ-palmitoyl-D-(α,γ-diaminobutyryl)-L-(α,γ-diaminobutyric acid) hydrazide] (H-[dDab](Palmitoyl)-[Dab]-NHNH2) | 9942 μunits of beta-galactosidase p | 5772 μunits of beta-galactosidase p | enhancement cpd A over Lipofectamine (CHO K1): 33; enhancement cpd A over Lipofectamine (293-EBNA): 5; transfection efficiency expressed as beta-galactosidase activity (COS-1 cells; Example 2: DOPE/dicaproyl phosphatidylcholine mixed micelles, plasmid pCH110, 0.2 μg of DNA per well): 7280 μUnits per well; transfection efficiency expressed as beta-galactosidase activity (COS-1 cells; Example 2: DOPE/dicaproyl phosphatidylcholine mixed micelles, plasmid pCH110, 1 μg of DNA per well): 6375 μUnits per well; transfection efficiency expressed as beta-galactosidase activity (COS-1 cells; Example 3: compound premixed with DOPE liposomes, then added to DNA, 0.2 μg of DNA per well): 4205 μUnits per well; transfection efficiency expressed as beta-galactosidase activity (COS-1 cells; Example 3: compound premixed with DOPE liposomes, then added to DNA, 1 μg of DNA per well): 7880 μUnits per well; enhancement cpd A over Lipofectamine (LM tk-): 12; enhancement cpd A over Lipofectamine (HeLa): 4 |
| N^α methyl arachidoyl-L lysyl-L lysine methyl ester | 148 μunits of beta-galactosidase p | 0 μunits of beta-galactosidase p | – |
| N^α oleoyl-L lysyl-L lysine ethyl ester | 1333 μunits of beta-galactosidase p | 0 μunits of beta-galactosidase p | – |
| N^α palmitoyl-L (α,γ-diaminobutyryl)-L lysine methyl ester | 791 μunits of beta-galactosidase p | – | – |
| N^α palmitoyl-L lysyl-L lysine ethyl ester | 424 μunits of beta-galactosidase p | 138 μunits of beta-galactosidase p | – |
| N^α palmitoyl-L lysyl-L lysine methyl ester | 150 μunits of beta-galactosidase p | 0 μunits of beta-galactosidase p | – |
| N^γ γ palmitoyl-D (α,ε-diaminopropionyl)-L (α,ε-diaminopropionic acid) hydrazide | 3671 μunits of beta-galactosidase p | 0 μunits of beta-galactosidase p | – |
| N^ε palmitoyl-L lysyl-L lysine methyl ester | 100 μunits of beta-galactosidase p | 0 μunits of beta-galactosidase p | – |
| N^ε palmitoyl-L lysyl-L lysyl-L lysine methyl ester | 1426 μunits of beta-galactosidase p | 0 μunits of beta-galactosidase p | – |
